The subject of this assay is M. tuberculosis H37Rv growth inhibition, 7H9 media. The experiment in a line: M. tuberculosis growth inhibition, HTS (AID 449762).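 As to all read-outs here: bacterial growth assessed after seven days of incubation.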 Particulars: for IC90: measured here: IC90 growth inhibition.

SMILES strings stand for the structures. Inconclusive results are not listed. Where only a bound is given, the exact number is not on record here.

`Cc1cc(C)c2oc(-c3ccc(C)c(NC(=S)NC(=O)/C=C/c4ccco4)c3)nc2c1`: the IC50 – broadly, the midpoint of a concentration-inhibition curve – was 59.8 µM and the IC90 (commonly the point of the concentration-response curve where the effect stands at 90%) is above 100 µM.

Consider `O=C(C=C=Nc1ccccc1)C(=O)N=C=Cc1ccccc1`, for which the IC50 is 5.31 µM and the IC90 amounted to 13.1 µM.

In the case of `CCOC(=O)C1CCCc2c1[nH]c1c(C(N)=O)cccc21` (configuration not stated), the IC50 is 4.13 µM and the IC90 worked out at 13.2 µM.

On to `O=[N+]([O-])c1cc(C=Nc2ccc3ccccc3c2)ccc1Br`, for which the IC50 was 33.5 µM and the 90% effect concentration (IC90) was 45.6 µM.

Take `O=c1[nH]c2ccccc2c2oc(CCl)nc12`: the IC50 is 1.14 µM and the IC90 worked out at 19.2 µM.

`CCC(C)NC(=O)c1cn(CC)c2cc(N3CCN(C(=O)c4ccco4)CC3)c(F)cc2c1=O` (configuration not stated): the 50% inhibitory concentration (IC50) was 9.33 µM and the IC90 was determined as 30.9 µM.

On to `Fc1ccc2[nH]c3c(NCc4ccccc4)ncnc3c2c1`, for which the IC50 is 23.5 µM and the concentration for an effect of 90% (IC90) stood at 26.7 µM.

Take `C/C(=N\NC(=S)NCC(C)(C)C)c1cc(F)cc(F)c1O`: the IC50 was 1.22 µM and the IC90 came out at 8.86 µM.

Take `CCC(=O)NC(=S)Nc1ccc(NC(=O)COc2ccc(Cl)cc2Cl)cc1`: the IC50 is 88.1 µM and the IC90 was above 100 µM.

For the compound `CCOC(=O)c1ccc(N=C2S/C(=C\c3cc(C)n(-c4cccnc4)c3C)C(=O)N2C)cc1`, the IC50 was 96.6 µM and the IC90 is above 100 µM.

Turning to `COc1cc(C(=O)N/N=C/c2cc([N+](=O)[O-])cs2)cc(OC)c1OC`, the IC50 was below 0.2 µM and the IC90 is 25.9 µM.

With `Cc1ccc(NCc2ccc(O)c3ncccc23)cc1C`, the IC50 is 56 µM and the IC90 was above 100 µM.

With `Cc1nc(SCC(=O)NCC2CCCO2)c2c3c(sc2n1)CCCC3` (configuration not stated), the concentration for half-maximal inhibition (IC50) is 22.2 µM and the IC90 worked out at 24.6 µM.

For the compound `COC(=O)C(C)Oc1ccc(-c2nccc(-c3ccccn3)n2)cc1` (configuration not stated), the IC50 is 1.73 µM and the IC90 is 4.04 µM.

As for `CCc1cc(C(=O)NNC(=O)CCl)sc1C`, the IC50 is 2.55 µM and the 90% effect concentration (IC90) came out at 4.62 µM.

`COc1cc2c(-c3ccc4[nH]ccc4c3)c(-c3ccc(C#N)cc3)oc(=O)c2cc1OC` displayed an IC90 above 100 µM.

As for `Cc1cc2oc3ccc(NCCCn4ccnc4)cc3c(=O)c2cc1C`, the IC50 is 18.2 µM and the IC90 stood at 27.5 µM.

Regarding `N=c1n(Cc2ccc(Cl)cc2)c2ccccc2n1CC(O)COc1ccccc1` (configuration not stated), the IC50 was 17.5 µM and the 90% effect concentration (IC90) was 25.5 µM.

Turning to `CC(C)(C)c1ccc(C(=O)N2CCN(CCNC(=O)C(=O)NCc3ccc(Cl)cc3)CC2)cc1`, the IC50 is 22.7 µM and the IC90 was found to be 28.3 µM.

As to `O=C(CSc1nc(Nc2ccccc2)nc(N2CCOCC2)n1)Nc1cc(Cl)ccc1O`, the IC50 was 44 µM and the IC90 was above 50 µM.

As to `CCCCN(C)CCNC(=O)c1ccc(Cn2c(=S)[nH]c3ccc(Br)cc3c2=O)cc1`, the IC50 was 12.2 µM and the IC90 is 20 µM.

With `CCOC(=O)c1cc(/C(C)=N/OC(=O)c2ccc(C(C)(C)C)cc2)on1`, the IC50 was 13.1 µM and the IC90 was 24.8 µM.

For `O=C(Nc1nnc(C2=COCCO2)o1)c1ccc(Cc2ccccc2)cc1`, the IC50 was 3.26 µM and the IC90 is 9.81 µM.

`O=c1cc2[nH]c3ccccc3c(=O)n2nc1-c1ccccc1`: the IC50 is 6.91 µM and the IC90 was 18 µM.

For `O=C(/C=C/c1ccc([N+](=O)[O-])cc1)NC1CC2CCC1C2` (configuration not stated), the IC50 is 44.6 µM and the 90% effect concentration (IC90) came to 84.1 µM.

Regarding `c1ccc2c(c1)ncn2CCCCOc1ccc2c(c1)CCC2`, the 50% inhibitory concentration (IC50) is 22.8 µM and the concentration for an effect of 90% (IC90) was determined as 25.7 µM.

Compound `C(=C\c1ccccc1)/C=N/Nc1nc2ccccc2s1` showed an IC90 above 100 µM.

On to `CC(c1ccccc1)N1CCN(C(=O)CCl)CC1` (configuration not stated), for which the IC50 was 1.26 µM and the IC90 amounted to 3.24 µM.

With `Cc1nc2ccc(OC(=O)c3ccccc3)cc2s1`, the IC50 was 66 µM and the IC90 turned out to be 86 µM.

In the case of `CCCCn1nc(C(=O)Nc2ccccc2N2CCCC2)c2ccccc2c1=O`, the IC50 is 11.8 µM and the IC90 was above 100 µM.

Take `CCCn1c(=N)n(CC(=O)c2ccc(OCC(=O)OC)cc2)c2ccccc21`: the IC50 was 11.1 µM and the IC90 was 43.6 µM.

`O=S(=O)(Nc1ccn(-c2ccccc2)n1)c1ccc(Br)cc1`: the IC50 was 95.4 µM and the IC90 was above 100 µM.

As to `Oc1ccc2ccccc2c1N=Nc1nccs1`, the IC50 is below 0.2 µM and the IC90 was determined as 2.01 µM.

For `S=C(Nc1ccc(Cl)cc1)NC1CC2CCC(C1)N2Cc1ccccc1` (configuration not stated), the IC50 was 10.9 µM and the IC90 stood at 14.8 µM.

`Nc1ccc2c(c1)Cc1ccccc1-2`: the IC90 was above 100 µM.

Consider `Cc1cc(C)c2cc(C(=O)Nc3ccc(C)c(F)c3)[nH]c2c1`, for which the concentration for half-maximal inhibition (IC50) was 0.94 µM and the IC90 is 1.69 µM.

Turning to `COc1ccccc1N1C(=O)NC(=O)/C(=C/c2ccc([N+](=O)[O-])s2)C1=O`, the IC90 was above 100 µM.

Regarding `Cc1ccc2nc(-c3ccncc3)cc(-c3ccccc3)c2c1`, the concentration for half-maximal inhibition (IC50) was 36.1 µM and the concentration for an effect of 90% (IC90) came to 47.2 µM.

`COCCOC(=O)c1ccc(NC(=O)COc2ccc([N+](=O)[O-])cc2)cc1`: the IC50 is 83 µM and the concentration for an effect of 90% (IC90) was above 100 µM.

Turning to `c1ccc(-c2nc3nonc3nc2-c2ccccc2)cc1`, the IC50 was 33.5 µM and the IC90 stood at 43.9 µM.

For the compound `Cc1ccc(Nc2nc(N)nc(CN3CCc4ccccc4C3)n2)cc1`, the 50% inhibitory concentration (IC50) was 2.2 µM and the IC90 is 8.89 µM.

Consider `O=C(OCC(=O)N1CCC(c2ccccc2)=N1)c1ccc(Cl)s1`, for which the IC50 is 21.5 µM and the IC90 was above 25 µM.

For the compound `Cc1ccc(-c2cccc(NC(=O)C3C4C=CC(C4)C3C(=O)O)c2)o1` (configuration not stated), the 50% inhibitory concentration (IC50) was 74.2 µM and the IC90 is above 100 µM.

For the compound `CN(C)C(=O)c1ccc(NC(=O)COC(=O)c2cc3c(s2)CCCCC3)cc1`, the IC50 was 45.8 µM and the 90% effect concentration (IC90) was above 100 µM.

Consider `CN(C)c1ccc(/C=C2\N=C(C(C)(C)C)OC2=O)cc1`, for which the IC50 is 14.4 µM and the IC90 worked out at 34.5 µM.

In the case of `CCCCN1C(=N)N([C@@H](CCC)CN2CCC[C@H]2CN2C(N)=NC[C@@H]2Cc2ccccc2)C[C@H]1Cc1ccccc1`, the IC50 is 12.8 µM and the concentration for an effect of 90% (IC90) turned out to be 18.2 µM.

For `CCOC(=O)Oc1c(OC)cc(C(=O)O[C@@H]2C[C@@H]3CN4CCc5c([nH]c6cc(OC)ccc56)[C@H]4C[C@@H]3[C@H](C(=O)OC)[C@H]2OC)cc1OC`, the IC50 was 19.7 µM and the IC90 was 27.3 µM.

Consider `O=C(c1cccc([N+](=O)[O-])c1)N1CCN(c2ccc(N3CCOCC3)nn2)CC1`, for which the IC50 was 19.7 µM and the IC90 was found to be 26.6 µM.

For `CCCCCCCCn1c2c(c(=N)c3c1CCC3)CCCC2`, the IC50 is 19 µM and the IC90 was 26.4 µM.

Consider `c1ccc(Nc2nc(N3CCCCC3)nc(N3CCNCC3)n2)cc1`, for which the IC50 was 46.1 µM and the IC90 was determined as 68.9 µM.

In the case of `CC(=O)c1sc(NC(=O)c2cc(=O)c3ccccc3o2)nc1C`, the IC50 was 14.3 µM and the IC90 is above 100 µM.

`CCOc1ccc(N/C(C)=C/C(=O)c2ccc3c(c2)OCCO3)cc1`: the IC50 is 11.6 µM and the 90% effect concentration (IC90) was 47.2 µM.

For `Cc1cccc(C(=O)NNC(=S)NC(=O)c2ccccc2)c1`, the IC50 is 0.59 µM and the IC90 stood at 2.82 µM.

(Values after PubChem BioAssay AID449762 (Southern Research Specialized Biocontainment Screening …, 2010).)
